Each block holds one molecule with its values, some of them ahead of it.
Tests used:
[1] = biological target: Sodium-dependent serotonin transporter (Homo sapiens, UniProt P31645)
Description: Inhibition of SERT (unknown origin)

Acetylcholinesterase = Acetylcholinesterase (Homo sapiens, UniProt P22303)
Description: Inhibition of AChE (unknown origin)

Thromboxane-A synthase = biological target: T1, Thromboxane-A synthase (Homo sapiens, UniProt P24557)
T1 sequence (P24557 whole entry): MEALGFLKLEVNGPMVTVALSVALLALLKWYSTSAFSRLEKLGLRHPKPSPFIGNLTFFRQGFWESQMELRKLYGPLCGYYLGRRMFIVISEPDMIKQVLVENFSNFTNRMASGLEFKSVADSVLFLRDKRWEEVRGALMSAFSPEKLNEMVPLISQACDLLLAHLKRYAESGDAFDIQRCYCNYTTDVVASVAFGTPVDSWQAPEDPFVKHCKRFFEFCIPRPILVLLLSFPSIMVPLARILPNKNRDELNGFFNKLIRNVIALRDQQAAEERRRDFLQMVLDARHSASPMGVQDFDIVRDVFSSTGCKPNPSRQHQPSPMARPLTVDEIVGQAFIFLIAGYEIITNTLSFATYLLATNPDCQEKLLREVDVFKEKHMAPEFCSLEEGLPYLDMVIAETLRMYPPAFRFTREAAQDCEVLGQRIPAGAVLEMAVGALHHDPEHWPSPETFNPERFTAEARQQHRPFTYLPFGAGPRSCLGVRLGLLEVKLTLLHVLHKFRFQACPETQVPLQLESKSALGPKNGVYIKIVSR
Description: Inhibition of TXA2 synthetase (unknown origin)

Vitamin D3 receptor = biological target: T2, Vitamin D3 receptor (Homo sapiens, UniProt P11473)
T2 sequence (P11473 whole entry): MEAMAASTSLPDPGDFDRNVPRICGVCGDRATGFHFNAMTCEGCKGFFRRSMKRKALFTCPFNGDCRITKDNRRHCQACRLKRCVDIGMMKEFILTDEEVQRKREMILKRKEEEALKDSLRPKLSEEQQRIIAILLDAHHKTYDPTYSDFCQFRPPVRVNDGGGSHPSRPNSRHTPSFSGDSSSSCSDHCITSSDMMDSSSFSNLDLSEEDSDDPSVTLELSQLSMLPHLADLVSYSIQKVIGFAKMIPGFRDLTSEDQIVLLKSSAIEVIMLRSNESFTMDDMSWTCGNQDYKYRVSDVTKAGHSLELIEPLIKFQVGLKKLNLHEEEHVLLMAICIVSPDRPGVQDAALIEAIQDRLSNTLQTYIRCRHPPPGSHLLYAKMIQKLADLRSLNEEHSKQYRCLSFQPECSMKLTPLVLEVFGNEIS
Description: Inhibition of VDR (unknown origin)

[2] = biological target: Voltage-dependent calcium channel subunit alpha-2/delta-1 (Homo sapiens, UniProt P54289)
Sequence of Voltage-dependent calcium channel subunit alpha-2/delta-1 (P54289 25-956 limits assumed): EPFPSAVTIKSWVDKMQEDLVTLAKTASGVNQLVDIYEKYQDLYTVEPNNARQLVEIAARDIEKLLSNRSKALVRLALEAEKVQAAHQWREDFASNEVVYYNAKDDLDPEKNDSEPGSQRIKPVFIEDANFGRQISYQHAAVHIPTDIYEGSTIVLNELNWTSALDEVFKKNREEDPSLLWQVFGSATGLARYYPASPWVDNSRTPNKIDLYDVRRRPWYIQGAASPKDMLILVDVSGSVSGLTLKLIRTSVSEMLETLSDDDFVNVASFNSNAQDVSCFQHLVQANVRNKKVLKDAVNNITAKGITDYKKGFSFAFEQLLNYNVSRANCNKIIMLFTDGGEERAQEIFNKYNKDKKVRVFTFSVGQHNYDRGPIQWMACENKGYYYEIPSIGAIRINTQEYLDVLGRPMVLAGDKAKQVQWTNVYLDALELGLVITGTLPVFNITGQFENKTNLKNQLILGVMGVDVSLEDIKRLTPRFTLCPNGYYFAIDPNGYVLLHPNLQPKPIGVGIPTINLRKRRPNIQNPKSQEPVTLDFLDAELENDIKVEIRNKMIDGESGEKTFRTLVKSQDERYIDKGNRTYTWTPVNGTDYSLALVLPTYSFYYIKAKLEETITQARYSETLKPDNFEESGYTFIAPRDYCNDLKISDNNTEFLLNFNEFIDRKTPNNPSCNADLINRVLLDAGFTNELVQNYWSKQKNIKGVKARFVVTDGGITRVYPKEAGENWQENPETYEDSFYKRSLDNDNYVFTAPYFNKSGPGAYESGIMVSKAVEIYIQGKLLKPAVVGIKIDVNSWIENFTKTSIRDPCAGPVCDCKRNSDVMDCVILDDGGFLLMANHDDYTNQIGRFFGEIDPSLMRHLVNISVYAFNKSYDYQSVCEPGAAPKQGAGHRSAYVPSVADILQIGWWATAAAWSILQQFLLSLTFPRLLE
Sequence of Voltage-dependent calcium channel subunit alpha-2/delta-1 (P54289 957-1103 limits assumed): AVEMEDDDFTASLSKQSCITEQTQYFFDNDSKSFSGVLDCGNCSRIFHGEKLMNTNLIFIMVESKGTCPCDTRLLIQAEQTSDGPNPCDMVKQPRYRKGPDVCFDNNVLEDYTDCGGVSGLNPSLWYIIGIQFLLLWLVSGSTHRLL
Description: Binding affinity to calcium channel alpha2delta1 (unknown origin)

[3] = biological target: Amyloid-beta precursor protein (Homo sapiens, UniProt P05067)
Sequence of Amyloid-beta precursor protein (P05067 whole entry): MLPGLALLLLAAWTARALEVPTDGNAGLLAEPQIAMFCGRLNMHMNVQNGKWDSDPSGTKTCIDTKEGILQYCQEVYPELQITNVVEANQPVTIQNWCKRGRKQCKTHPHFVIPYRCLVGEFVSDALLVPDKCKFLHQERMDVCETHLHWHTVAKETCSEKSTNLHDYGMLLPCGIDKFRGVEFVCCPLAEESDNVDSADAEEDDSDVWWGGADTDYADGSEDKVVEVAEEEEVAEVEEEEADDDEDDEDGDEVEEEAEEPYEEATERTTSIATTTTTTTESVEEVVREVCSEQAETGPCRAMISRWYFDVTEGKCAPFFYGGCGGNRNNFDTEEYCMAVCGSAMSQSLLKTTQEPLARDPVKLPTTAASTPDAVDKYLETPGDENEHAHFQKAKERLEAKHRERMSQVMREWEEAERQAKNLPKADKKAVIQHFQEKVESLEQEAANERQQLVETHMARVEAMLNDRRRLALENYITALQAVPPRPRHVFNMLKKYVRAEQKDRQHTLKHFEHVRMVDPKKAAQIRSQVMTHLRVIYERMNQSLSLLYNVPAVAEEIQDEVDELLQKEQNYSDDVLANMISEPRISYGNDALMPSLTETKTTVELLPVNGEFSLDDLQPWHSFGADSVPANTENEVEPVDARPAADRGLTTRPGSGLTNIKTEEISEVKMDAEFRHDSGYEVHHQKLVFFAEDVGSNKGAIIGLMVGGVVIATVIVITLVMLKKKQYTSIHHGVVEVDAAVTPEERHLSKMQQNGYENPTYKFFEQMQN
Description: Inhibition of amyloid beta (1 to 42 ) (unknown origin) self aggregation

Sequence of Sodium-dependent serotonin transporter (P31645 whole entry): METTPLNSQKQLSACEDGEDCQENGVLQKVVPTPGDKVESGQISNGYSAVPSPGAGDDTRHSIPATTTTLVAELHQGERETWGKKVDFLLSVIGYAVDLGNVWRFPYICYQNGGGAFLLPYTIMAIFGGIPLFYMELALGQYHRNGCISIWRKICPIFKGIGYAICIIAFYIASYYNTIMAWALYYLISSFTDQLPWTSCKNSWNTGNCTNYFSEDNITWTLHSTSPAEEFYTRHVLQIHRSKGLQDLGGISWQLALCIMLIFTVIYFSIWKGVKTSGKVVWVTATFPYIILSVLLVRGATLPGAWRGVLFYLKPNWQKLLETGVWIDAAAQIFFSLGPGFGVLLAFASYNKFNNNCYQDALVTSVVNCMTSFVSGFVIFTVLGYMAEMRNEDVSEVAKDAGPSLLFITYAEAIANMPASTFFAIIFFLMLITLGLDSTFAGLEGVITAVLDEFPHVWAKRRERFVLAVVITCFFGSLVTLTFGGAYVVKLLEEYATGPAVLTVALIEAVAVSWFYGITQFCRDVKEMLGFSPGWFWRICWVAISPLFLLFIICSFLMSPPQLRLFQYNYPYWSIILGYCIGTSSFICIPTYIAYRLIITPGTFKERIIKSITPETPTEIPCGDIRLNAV
Sequence of Acetylcholinesterase (P22303 whole entry): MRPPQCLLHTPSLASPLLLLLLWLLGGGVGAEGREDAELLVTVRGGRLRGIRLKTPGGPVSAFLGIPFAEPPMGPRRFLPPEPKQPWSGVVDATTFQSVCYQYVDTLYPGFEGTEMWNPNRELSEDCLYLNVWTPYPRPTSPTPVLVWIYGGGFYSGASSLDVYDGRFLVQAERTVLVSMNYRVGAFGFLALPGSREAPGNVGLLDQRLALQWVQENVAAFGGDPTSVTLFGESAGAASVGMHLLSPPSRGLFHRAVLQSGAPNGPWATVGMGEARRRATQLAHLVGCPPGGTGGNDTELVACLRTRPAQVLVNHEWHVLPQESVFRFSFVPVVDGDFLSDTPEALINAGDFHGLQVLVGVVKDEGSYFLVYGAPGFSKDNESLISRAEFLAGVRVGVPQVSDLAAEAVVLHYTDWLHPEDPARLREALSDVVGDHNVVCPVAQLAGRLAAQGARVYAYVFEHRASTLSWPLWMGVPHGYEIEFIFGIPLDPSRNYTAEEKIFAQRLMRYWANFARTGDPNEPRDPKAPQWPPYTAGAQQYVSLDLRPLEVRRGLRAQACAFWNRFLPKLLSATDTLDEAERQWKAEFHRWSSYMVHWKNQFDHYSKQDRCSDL

Structure (SMILES): CCN(C)C(=O)Oc1ccc2c(c1)C=CC(C)N(C)C2CCOc1ccc([N+](=O)[O-])cc1 (stereo not given)
- IC50 [1]: 6 nM
- IC50 (Acetylcholinesterase): 14 nM

Structure (SMILES): CCN(C)C(=O)Oc1ccc(C(CCOc2ccc([N+](=O)[O-])cc2)NC)cc1 (stereo not given)
- IC50 [1]: 42 nM
- IC50 (Acetylcholinesterase): 101 nM

Structure (SMILES): CCOC(=O)CCCCO/N=C(/c1cccnc1)c1cccc(CNS(=O)(=O)c2ccc(Cn3c(C)nc4ccccc43)cc2)c1
- IC50 (Thromboxane-A synthase): 4.7 nM

Structure (SMILES): CC(/C=C/C(=O)NO)=C\C(C)C1CCC2/C(=C/C=C3CC(O)CC(O)C3)CCCC21C (stereo not given)
- IC50 (Vitamin D3 receptor): 87 nM

Structure (SMILES): O=C(O)CCCCO/N=C(/c1cccnc1)c1cccc(C(F)(F)F)c1 [RIDOGREL]
- IC50 (Thromboxane-A synthase): 500 nM

The next lines start with the values.

- Ki [2]: 11 nM
Structure (SMILES): CCNc1ncc2c(n1)N1CCCC1CN(c1cccc(-c3noc(C)n3)c1)C2=O (stereo not given)

- IC50 [3]: 2850 nM
Structure (SMILES): Cc1c(O)c(=O)ccn1-c1ccc(OCCCN2CCCC2)cc1

- IC50 [3]: 56000 nM
Structure (SMILES): CCN(CC)CCCOc1ccc(-c2oc3ccccc3c2C(=O)c2ccc(C)cc2)cc1
